Results taken from ChEMBL document CHEMBL1201862, “PubChem BioAssay data set” (2004).
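Method: 48-hour compound exposure of cells in 96-well plates, five concentrations, linear interpolation of endpoints. GI50: concentration for 50% inhibition of growth.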 Calls of active or inactive are those of the source. Cut-off read from the data, not from the text of the source: active = GI50 up to about 1.1 µM and inactive = higher.

Legend:
Experiment in all cases: NCI-60 cell line screen, 48 h
OVCAR-3 = system: OVCAR-3
EKVX = system: EKVX
A549 = system: A549
UACC-257 = system: UACC-257
SF-295 = system: SF-295
MDA-N = system: MDA-N
OVCAR-5 = system: OVCAR-5
SNB-75 = system: SNB-75
SK-MEL-2 = system: SK-MEL-2
786-0 = system: 786-0
NCI-H522 = system: NCI-H522
SK-MEL-28 = system: SK-MEL-28
M14 = system: M14
SK-MEL-5 = system: SK-MEL-5
HL-60 = system: HL-60
SF-539 = system: SF-539
SR = system: SR
SK-OV-3 = system: SK-OV-3
TK-10 = system: TK-10
HOP-92 = system: HOP-92

SMILES | GI50 (OVCAR-3) | GI50 (EKVX) | GI50 (A549) | GI50 (UACC-257) | GI50 (SF-295) | GI50 (MDA-N) | GI50 (OVCAR-5) | GI50 (SNB-75) | GI50 (SK-MEL-2) | GI50 (786-0) | GI50 (NCI-H522) | GI50 (SK-MEL-28) | GI50 (M14) | GI50 (SK-MEL-5) | GI50 (HL-60) | GI50 (SF-539) | GI50 (SR) | GI50 (SK-OV-3) | GI50 (TK-10) | GI50 (HOP-92)
CCC/N=C(/NC(=O)c1ccc(Cl)cc1)SC | 0.0473 µM (active) | > 100 µM (inactive) | > 100 µM (inactive) | 74.5 µM (inactive) | > 100 µM (inactive) | > 100 µM (inactive) | > 100 µM (inactive) | 11.4 µM (inactive) | > 100 µM (inactive) | > 100 µM (inactive) | 52 µM (inactive) | > 100 µM (inactive) | > 100 µM (inactive) | 48.6 µM (inactive) | 58.7 µM (inactive) | > 100 µM (inactive) | 36.8 µM (inactive) | > 100 µM (inactive) |  | 
CC(C)(NO)/C(=N\O)c1ccccc1 | > 10 µM (inactive) | > 10 µM (inactive) |  | > 10 µM (inactive) | > 10 µM (inactive) | > 10 µM (inactive) | > 10 µM (inactive) |  | > 10 µM (inactive) | > 10 µM (inactive) | > 10 µM (inactive) |  | > 10 µM (inactive) |  | > 10 µM (inactive) |  | > 10 µM (inactive) |  | > 10 µM (inactive) | > 10 µM (inactive)
C=CCSC1=N/C(=C\c2ccc(OC)cc2)C(=O)N1CC=C | 45.9 µM (inactive) | 19.7 µM (inactive) | 30.9 µM (inactive) | 23.2 µM (inactive) | 35.3 µM (inactive) | 23.2 µM (inactive) | 57.8 µM (inactive) |  | 29.6 µM (inactive) | 25.5 µM (inactive) | 27.7 µM (inactive) | 42.5 µM (inactive) | 36.7 µM (inactive) | 15.6 µM (inactive) | 16 µM (inactive) | 36.6 µM (inactive) | 13.5 µM (inactive) | > 100 µM (inactive) | 45.2 µM (inactive) | 28.8 µM (inactive)
O=C1c2ccccc2NC(=S)[C@@H]2CCCN12 | > 100 µM (inactive) | > 100 µM (inactive) | > 100 µM (inactive) | > 100 µM (inactive) | > 100 µM (inactive) | > 100 µM (inactive) | > 100 µM (inactive) | > 100 µM (inactive) | > 100 µM (inactive) | > 100 µM (inactive) | > 100 µM (inactive) | > 100 µM (inactive) | > 100 µM (inactive) | > 100 µM (inactive) |  | > 100 µM (inactive) | > 100 µM (inactive) | > 100 µM (inactive) | > 100 µM (inactive) | > 100 µM (inactive)
N#CCCN(CCC#N)c1ccc(C(=N/c2ccc(F)cc2)/N=N/c2ccc(Cl)cc2)cc1 | > 100 µM (inactive) | > 100 µM (inactive) | > 100 µM (inactive) | > 100 µM (inactive) | > 100 µM (inactive) | > 100 µM (inactive) | > 100 µM (inactive) | > 100 µM (inactive) |  | > 100 µM (inactive) | > 100 µM (inactive) | > 100 µM (inactive) | > 100 µM (inactive) | > 100 µM (inactive) |  | > 100 µM (inactive) | > 100 µM (inactive) | > 100 µM (inactive) | > 100 µM (inactive) | > 100 µM (inactive)
COc1ccc2c(c1)OCC1(O)Cc3ccccc3OC21 (stereo unspecified) | > 100 µM (inactive) | > 100 µM (inactive) | > 100 µM (inactive) | > 100 µM (inactive) | > 100 µM (inactive) | > 100 µM (inactive) | > 100 µM (inactive) | > 100 µM (inactive) | > 100 µM (inactive) | > 100 µM (inactive) | > 100 µM (inactive) |  | > 100 µM (inactive) | > 100 µM (inactive) |  | > 100 µM (inactive) | > 100 µM (inactive) | > 100 µM (inactive) | > 100 µM (inactive) | > 100 µM (inactive)
CCc1n[nH]c(=O)n1O | > 100 µM (inactive) | > 100 µM (inactive) | > 100 µM (inactive) | > 100 µM (inactive) | > 100 µM (inactive) | > 100 µM (inactive) |  |  | > 100 µM (inactive) | > 100 µM (inactive) | > 100 µM (inactive) | > 100 µM (inactive) |  | > 100 µM (inactive) | > 100 µM (inactive) | > 100 µM (inactive) | > 100 µM (inactive) | > 100 µM (inactive) | > 100 µM (inactive) | 0.0738 µM (active)
COc1ccc(-n2cnc3c(NC(CCSC)C(=O)O)ncnc32)cc1 (stereo unspecified) | > 100 µM (inactive) | > 100 µM (inactive) | > 100 µM (inactive) | > 100 µM (inactive) | > 100 µM (inactive) | > 100 µM (inactive) | > 100 µM (inactive) | > 100 µM (inactive) | > 100 µM (inactive) | > 100 µM (inactive) | > 100 µM (inactive) | > 100 µM (inactive) | > 100 µM (inactive) | > 100 µM (inactive) |  |  | > 100 µM (inactive) | > 100 µM (inactive) | > 100 µM (inactive) | 74.1 µM (inactive)
